In patent US20050004029A1, “Methods and compositions for treating vascular leak using hepatocyte growth factor” (priority 2001, published 2005):

How the values were obtained:
p38 MAPK = p38 MAPK activation by phospho-specific immunoblotting; format: cell-based, human; conditions: HGF 20 ng/ml
Protocol: (§1) Endothelial cell monolayers grown to confluence in 12-well plates and challenged with HGF were lysed with 100 μl of 2×SDS sample buffer, and cell lysates were transferred into microcentrifuge tubes and boiled for 5 min. After a brief spin, proteins from 10 μl cell lysates were separated on 12% SDS-PAGE and transferred to nitrocellulose (Schleicher & Schuell, Keene, N.H.) (30V, 18 h). After blocking with PBST (PBS with 0.1% Tween 20) containing 5% non-fat milk for 1 hr, nitrocellulose blots were reacted with primary antibodies diluted in PBST containing 5% BSA for 1 hr, washed with PBST (3×10 min), incubated with peroxidase-conjugated secondary antibodies (goat anti-rabbit IgG, 1:10,000 dilution, Sigma; or goat anti-mouse IgG, 1:10,000 dilution, Bio-Rad Labs, Richmond, Calif.) diluted in PBST with 5% non-fat milk for 1 hr and again washed with PBST (3×10 min). Finally, immunoreactive proteins were detected using ECL. The relative intensities of the protein bands were quantified by scanning densitometry.
The MAP family of kinases (ERK1/2 and p38) are actively involved in agonist-induced endothelial cell actin reorganization and barrier regulation (Verin, A. D. et al. (2000) Am. J. Physiol: Lung Cell Molec. Phys. 279:L360-L370, 2000; Garcia, J. G. N. et al. (2001) J. Clin. Invest. 108:689-711) and have been noted to participate in HGF-mediated cell activation (Liang, C. C. and Chen, H. C. (2001) J. Biol. Chem. 276:21146-21152). These reports were confirmed in human endothelial cell monolayers incubated with HGF (20 ng/ml, for 1, 2, 5, 10, 15, 20, 30, 60, or 120 min) where activation of p42/44 ERK and p38 MAPK by HGF was detected by immunoblotting with antibodies that only recognize the phosphorylated (activated) forms of ERK or p38 MAPK. The activation of ERKs was evident at 5 min, maximal after 10-15 min with a gradual decline thereafter, but remaining sustained above basal levels for more than 2 hrs. […] The onset of HGF-mediated activation of p38 MAPK was similar to ERK, with plateau at 10-15 min. […]

PI-3′ kinase = experiment: Akt phosphorylation by western immunoblotting (PI-3′ kinase activity); format: cell-based
Protocol: as §1
To identify key signaling mediators involved in HGF-induced barrier protection, the role of PI-3′-kinase in HGF-stimulated barrier improvement was examined by measuring HGF-dependent phosphorylation of the serine/threonine kinase, Akt, a well-accepted method of defining PI-3′ kinase activity. Cell homogenates were analyzed by western immunoblotting with anti-phospho-Akt[…] antibody. When endothelial monolayers were incubated with HGF (20 ng/ml) for increasing amounts of time (1, 2, 5, 10, 15, 20, 30, 60, or 120 minutes), AKT is rapidly phosphorylated beginning at 2 min with maximal effect plateauing by 5-30 min. When the cells are incubated for 15 minutes with increasing concentrations of HGF (0.5, 1, 2, 5, 10, 20, 50 or 100 ng/ml), activation was […] in response to concentrations as low as 5 ng/ml. […]

## HGF: heparin-binding glycoprotein, multifunctional cytokine, ligand of c-Met; purchased from R&D Systems
p38 MAPK
  time at which p38 MAPK activation begins to decline: ≤ 20 min
  time of plateau of p38 MAPK activation: 10 to 15 min
  time of return of p38 MAPK activation to basal value: ≤ 1 h
PI-3′ kinase; HGF 20 ng/ml
  onset of Akt phosphorylation: 2 min
  time of maximal Akt phosphorylation (plateau): 5 to 30 min
PI-3′ kinase; HGF 0.5-100 ng/ml, 15 minutes
  lowest concentration giving Akt activation: 5 ng/mL
